Assay results as given in patent publication US20130303535A1, “NOVEL BICYCLIC HETEROCYCLIC COMPOUND” (priority 2008, published 2013).

What follows are compounds tested against TTX resistant Na channel of human SNS-expressing cell (SNS) (Homo sapiens, UniProt Q9Y5Y9) (assay: cell-based). Settings: CHO-K1, compound concentration 12.5 μM; read-out: SNS inhibitory rate (%).
Sequence of TTX resistant Na channel of human SNS-expressing cell (SNS) (Q9Y5Y9 whole entry, looked up): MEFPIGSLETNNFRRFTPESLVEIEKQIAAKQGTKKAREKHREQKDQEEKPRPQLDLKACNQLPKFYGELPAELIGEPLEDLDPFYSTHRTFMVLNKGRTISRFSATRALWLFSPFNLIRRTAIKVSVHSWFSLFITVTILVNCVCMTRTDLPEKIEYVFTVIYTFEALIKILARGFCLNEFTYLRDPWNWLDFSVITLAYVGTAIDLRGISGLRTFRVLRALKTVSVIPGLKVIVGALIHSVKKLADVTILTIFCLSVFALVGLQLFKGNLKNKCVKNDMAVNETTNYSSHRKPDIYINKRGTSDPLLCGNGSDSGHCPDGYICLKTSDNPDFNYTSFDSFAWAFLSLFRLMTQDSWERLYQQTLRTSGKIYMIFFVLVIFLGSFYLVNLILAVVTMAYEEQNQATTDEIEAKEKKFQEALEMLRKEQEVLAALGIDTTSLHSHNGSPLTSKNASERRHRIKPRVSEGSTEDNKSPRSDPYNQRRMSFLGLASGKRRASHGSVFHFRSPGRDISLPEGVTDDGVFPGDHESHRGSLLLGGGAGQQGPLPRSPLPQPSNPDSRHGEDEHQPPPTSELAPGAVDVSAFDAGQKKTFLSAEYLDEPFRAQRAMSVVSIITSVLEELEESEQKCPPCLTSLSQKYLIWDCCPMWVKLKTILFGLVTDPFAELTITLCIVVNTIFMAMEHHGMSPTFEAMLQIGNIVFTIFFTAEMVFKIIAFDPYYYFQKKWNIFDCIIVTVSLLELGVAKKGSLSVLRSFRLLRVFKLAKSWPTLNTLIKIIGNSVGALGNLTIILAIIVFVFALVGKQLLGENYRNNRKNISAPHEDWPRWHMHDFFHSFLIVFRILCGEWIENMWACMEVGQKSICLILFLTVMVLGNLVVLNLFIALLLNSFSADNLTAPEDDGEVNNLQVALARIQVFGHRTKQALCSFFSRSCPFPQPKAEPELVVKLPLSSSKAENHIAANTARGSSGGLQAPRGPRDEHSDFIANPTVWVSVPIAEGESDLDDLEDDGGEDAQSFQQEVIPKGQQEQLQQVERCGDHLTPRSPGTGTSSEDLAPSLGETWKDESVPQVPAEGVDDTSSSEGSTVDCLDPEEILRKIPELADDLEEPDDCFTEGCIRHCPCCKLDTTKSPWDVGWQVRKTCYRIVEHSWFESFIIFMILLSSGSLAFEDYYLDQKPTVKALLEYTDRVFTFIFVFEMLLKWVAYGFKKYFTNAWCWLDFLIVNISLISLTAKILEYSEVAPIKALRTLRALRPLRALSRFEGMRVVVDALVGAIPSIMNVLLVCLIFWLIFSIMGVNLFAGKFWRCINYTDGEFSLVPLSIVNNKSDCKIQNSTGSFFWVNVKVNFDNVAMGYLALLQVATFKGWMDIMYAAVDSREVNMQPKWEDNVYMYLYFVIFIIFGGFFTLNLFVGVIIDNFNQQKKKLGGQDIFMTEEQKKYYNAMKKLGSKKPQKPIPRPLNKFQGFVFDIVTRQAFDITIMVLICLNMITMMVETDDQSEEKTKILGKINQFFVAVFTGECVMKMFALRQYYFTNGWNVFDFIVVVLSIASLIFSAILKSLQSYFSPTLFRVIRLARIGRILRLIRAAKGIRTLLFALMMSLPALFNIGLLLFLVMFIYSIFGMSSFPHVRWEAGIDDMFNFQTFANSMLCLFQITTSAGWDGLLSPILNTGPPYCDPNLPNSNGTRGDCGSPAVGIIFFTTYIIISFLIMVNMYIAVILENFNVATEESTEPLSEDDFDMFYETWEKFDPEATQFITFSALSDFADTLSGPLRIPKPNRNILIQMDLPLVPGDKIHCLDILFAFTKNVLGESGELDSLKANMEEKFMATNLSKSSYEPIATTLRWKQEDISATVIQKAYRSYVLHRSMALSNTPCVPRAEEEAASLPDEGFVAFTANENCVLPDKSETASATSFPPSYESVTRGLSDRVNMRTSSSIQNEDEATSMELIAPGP

Point of comparison: `CCOCCn1c(CN[C@@H](C)C(N)=O)nc2ccc(-c3c(C)cc(C)cc3C)cc21` [Example 164], inhibition at 12.5 µM 3.7%. Against it:
- CCn1c(CN[C@@H](C)C(N)=O)nc2ccc(Oc3ccc(F)cc3F)cc21 [Example 98] — higher, 69.8%
- C[C@H](NCc1nc2ccc(Oc3ccc(OC(F)(F)F)cc3)cc2n1C[C@@H]1CCCO1)C(N)=O [Example 120] — higher, 92.4%
- C[C@H](NCc1nc2ccc(Oc3ccc(OC(F)(F)F)cc3)cc2n1CC(C)(C)O)C(N)=O [Example 103] — higher, 87.9%
- CCOCCn1c(CNCC(N)=O)nc2ccc(Oc3ccccc3)nc21 [Example 80, N^2-{[3-(2-ethoxyethyl)-5-phenoxy-3H-imidazo[4,5-b]pyridin-2-yl]methyl}glycinamide] — lower, 2.5%
- CCOCCn1c(CN[C@@H](C)C(N)=O)nc2ccc(Oc3cc(F)c(F)c(F)c3)cc21 [Example 44] — higher, 84.9%
- NC(=O)CNCc1nc2ccc(Oc3ccccc3)cc2n1C1CCC1 [Example 12] — higher, 17%
- CCOCCn1c(CN[C@@H](C)C(N)=O)nc2ccc(-c3cccc(C)c3)cc21 [Example 152] — higher, 8.9%
- COCCCn1c(CN[C@@H](C)C(N)=O)nc2ccc(Oc3ccc(F)c(F)c3)cc21 [Example 122] — higher, 100%
- C[C@H](NCc1nc2ccc(Oc3ccc(F)c(F)c3)cc2n1C1CCOCC1)C(N)=O [Example 128] — higher, 85%
- C[C@H](NCc1nc2ccc(Oc3ccc(F)cc3)cc2n1C1CCN(S(C)(=O)=O)CC1)C(N)=O [Example 86, N^2-({6-(4-fluorophenoxy)-1-[1-(methylsulfonyl)piperidin-4-yl]-1H-benzimidazol-2-yl}methyl)-L-alaninamide] — higher, 8.3%
- CCOCCn1c(CN[C@@H](C)C(N)=O)nc2ccc(Oc3ccc(C(C)C)cc3)cc21 [Example 94] — higher, 63.9%
- CCOCCn1c(CN[C@@H](C)C(N)=O)nc2ccc(Oc3cccc(F)c3)cc21 [Example 53] — higher, 94%
- CCOCCn1c(CN[C@@H](C)C(N)=O)nc2cc(Cl)c(-c3ccc(F)cc3F)cc21 [Example 179] — higher, 67.4%
- CCOCCn1c(CN[C@@H](C)C(N)=O)nc2cc(C)c(-c3ccc(F)c(F)c3)cc21 [Example 190] — higher, 34.3%
- C[C@H](NCc1nc2ccc(Oc3ccc(F)c(F)c3)cc2n1C[C@H]1CCCO1)C(N)=O [Example 124] — higher, 87.8%
- CCOCCn1c(CNC(C)(C)C(N)=O)nc2ccc(Oc3cccc(Cl)c3)cc21 [Example 30] — higher, 31.5%
- CCOCCn1c(CN[C@@H](C)C(N)=O)nc2cc(Cl)c(-c3ccc(F)cc3)cc21 [Example 92, N^2-{[5-chloro-1-(2-ethoxyethyl)-6-(4-fluorophenyl)-1H-benzimidazol-2-yl]methyl}-L-alaninamide] — higher, 66.7%
- CCOCCn1c(CN[C@@H](CC)C(N)=O)nc2ccc(-c3ccc(C)c(C)c3)cc21 [Example 163] — higher, 36.5%
- CC(C)n1c(CN[C@@H](C)C(N)=O)nc2ccc(Oc3ccccc3)cc21 [Example 9] — higher, 28.9%
- C[C@H](NCc1nc2ccc(Oc3ccccc3)cc2n1C[C@@H]1CCCO1)C(N)=O [Example 22] — higher, 16.4%
- CCOCCn1c(CN[C@@H](C)C(N)=O)nc2ccc(-c3ccccc3)cc21 [Example 69] — higher, 22.3%
- CCOCCn1c(CN[C@@H](C)C(N)=O)nc2cc(F)c(-c3ccc(C)c(F)c3)cc21 [Example 189] — higher, 97.7%
- C[C@H](NCc1nc2ccc(Oc3ccc(OC(F)(F)F)cc3)cc2n1C[C@H]1CCCO1)C(N)=O [Example 132] — higher, 86.4%
- C[C@H](NCc1nc2ccc(Oc3ccc(F)cc3F)cc2n1C1CC1)C(N)=O [Example 99] — higher, 65.4%
- CCOCCn1c(CN[C@@H](C)C(N)=O)nc2ccc(Oc3ccc(F)cc3)cc21 [Example 59, N^2-{[1-(2-ethoxyethyl)-6-(4-fluorophenoxy)-1H-benzimidazol-2-yl]methyl}-L-alaninamide] — higher, 54.8%
- CCOCCn1c(CNC(C)(C)C(N)=O)nc2ccc(OCc3ccccc3)cc21 [Example 77, N^2-{[6-(benzyloxy)-1-(2-ethoxyethyl)-1H-benzimidazol-2-yl]methyl}-2-methylalaninamide] — higher, 16%
- CCOCCn1c(CN[C@@H](C)C(N)=O)nc2ccc(Oc3cc(F)cc(F)c3F)cc21 [Example 57] — higher, 87.6%
- CCOCCn1c(CN[C@H](C(N)=O)C(C)C)nc2ccc(Oc3ccccc3)cc21 [Example 38] — higher, 48.8%
- CCn1c(CN[C@@H](C)C(N)=O)nc2ccc(Oc3ccc(F)c(F)c3)cc21 [Example 97] — higher, 82.4%
- CCOCCn1c(CN[C@@H](C)C(N)=O)nc2c(Cl)cc(-c3ccc(F)cc3)cc21 [Example 112, N^2-{[4-chloro-1-(2-ethoxyethyl)-6-(4-fluorophenyl)-1H-benzimidazol-2-yl]methyl}-L-alaninamide] — lower, 0%
- CCOCCn1c(CNC(C)(C)C(N)=O)nc2ccc(-c3ccc(F)c(OC)c3)cc21 [Example 175] — higher, 5.9%
- CCOCCn1c(CN[C@@H](C)C(N)=O)nc2cc(C)c(-c3ccc(F)cc3)cc21 [Example 113, N^2-{[1-(2-ethoxyethyl)-6-(4-fluorophenyl)-5-methyl-1H-benzimidazol-2-yl]methyl}-L-alaninamide] — higher, 64.7%
- CCOCCn1c(CN[C@@H](C)C(N)=O)nc2ccc(-c3ccc(C)c(F)c3)cc21 [Example 169] — higher, 68.1%
- CCOCCn1c(CN[C@@H](C)C(N)=O)nc2cc(Cl)c(Oc3ccc(F)cc3)cc21 [Example 118, N^2-{[5-chloro-1-(2-ethoxyethyl)-6-(4-fluorophenoxy)-1H-benzimidazol-2-yl]methyl}-L-alaninamide] — higher, 64.5%
- CCOCCn1c(CN[C@@H](C)C(N)=O)nc2ccc(-c3cccc(F)c3F)cc21 [Example 171] — higher, 38.3%
- Cc1ccc(Oc2ccc3nc(CN[C@@H](C)C(N)=O)n(C4CCOCC4)c3c2)cc1 [Example 129] — higher, 90.3%
- CCOCCn1c(CN[C@@H](C)C(N)=O)nc2cc(F)c(-c3ccc(Cl)cc3)cc21 [Example 186] — higher, 55.6%
- C[C@H](NCc1nc2ccc(Oc3ccc(F)cc3F)cc2n1C[C@H]1CCCO1)C(N)=O [Example 125] — higher, 95.9%
- CCOCCn1c(CN[C@@H](C)C(N)=O)nc2ccc(Oc3ccc(F)cc3Cl)cc21 [Example 93] — higher, 82.1%
- CCOCCn1c(CN[C@@H](C)C(N)=O)nc2ccc(Oc3ccc4c(c3)CCC4)cc21 [Example 95] — higher, 26.8%
- CCOCCn1c(CN[C@@H](C)C(N)=O)nc2c(F)cc(-c3ccc(F)cc3)cc21 [Example 114, N^2-{[1-(2-ethoxyethyl)-4-fluoro-6-(4-fluorophenyl)-1H-benzimidazol-2-yl]methyl}-L-alaninamide] — higher, 6.5%
- CCOCCn1c(CNCC(N)=O)nc2ccc(Oc3ccc(F)cc3)cc21 [Example 3, N^2-{[1-(2-ethoxyethyl)-6-(4-fluorophenoxy)-1H-benzimidazol-2-yl]methyl}glycinamide] — higher, 12.9%
- COCCCn1c(CN[C@@H](C)C(N)=O)nc2ccc(Oc3ccc(F)cc3)cc21 [Example 64] — higher, 82.7%
- CCOCCn1c(CN[C@@H](C)C(N)=O)nc2ccc(Oc3ccccc3Cl)cc21 [Example 31] — higher, 92.1%
